Peptide text beside a SMILES is read from it. * marks the point of attachment. Cbz = O=C(OCc1ccccc1)*
Columns and labels:
[1] = tested on: nucleus gems in NSC34 cells; assay: Nucleus gems count by immunofluorescence staining (anti-Gemin 2); format: cell-based; conditions: for increase of gems number per one hundred cells comparing to vehicle: NSC34 cells, 10 μM; for Total number of nucleus gems per 100 cells: NSC-34 cells
Description: The cellular expression localization of UCHL1 and SMN was determined by immunofluorescence as previously described (Hsu, S. H. et al. (2004) Exp Cell Res, 294, 185-198). HEK 293 and NSC34 cells were cultured on coverslides pre-coated with poly-L-lysine for 16 hours. After washing with cold PBS, cells were fixed with 2% paraformaldehyde in PBS for 30 minutes on ice, and then the slides were washed with PBS for 30 minutes. Cells were permeabilized with buffer containing 0.2% Triton X-100 and 1% NGS in PBS for 20 minutes on ice, and then the slides were washed with PBS to remove excess detergent. Cells were then incubated in anti-EGFP (or anti-HA) and anti-SMN polyclonal antibody (1:200) for 1 hour at room temperature. After washing cells with PBS for 30 minutes, FITC-conjugated […] anti-rabbit and -mouse polyclonal antibody (1:300) was added and the cells were incubated for another 1 hour at room temperature in a humid chamber. Cells were finally counterstained with DAPI to localize the nucleus and observed by confocal microscopy.
In additional to the use of specific UCHL1 inhibitor, the specific shRNAi constructs for UCHL1 were also used to monitor the regulatory effects of UCHL1 on SMN protein. […] The knockdown efficiency of these shRNAi constructs to UCHL1 was 25, 70 and 47% of vector control and the SMN protein was increased 32, 46 and 47% (FIG. 5D). […] The cellular function of elevated SMN was also examined with nucleus gems by immuno-fluorescence staining (FIG. 5E). The nucleus gems stained with anti-Gemin 2 antibody were counted for one hundred NSC34 treated with vehicle or LDN-57444 for 24 hours and 48 hours.

[2] = tested on: SMN protein in NSC34 cells; assay: Cellular SMN protein level after LDN-57444 treatment (Western blot); format: cell-based; conditions: for SMN protein expression level increase compared to the vehicle group: 5 μM; for SMN protein increase: 10 μM
Description: (§1) Western blot analysis and immunohistochemical staining were performed as described previously. The primary antibodies used in this study were β-actin (1:2,000, Santa Cruz, 1-19), SMN (1:1,000, Santa Cruz, SC-32313), Gemin 2, Gemin 3 and Gemin 5 polyclonal antibody (1:200, Santa Cruz), UCHL1 monoclonal antibodies (1:2,000, Calbiochem.), HA-tag (1:2,000, Sigma), FITC-conjugated anti-mouse, alkaline phosphatase-conjugated anti-rabbit antibodies (1:500, Jackson ImmunoResearch Lab.) and anti-EGFP rabbit polyclonal antibody (1:5,000, produced in-house).
The cellular function of UCHL1 on SMN protein was further characterized with an over-expression assay. The UCHL1 was tagged with HA tag and over expressed in HEK293, p19 and NSC34 cells to evaluate the cellular function. […] The regulatory effect of UCHL1 was also confirmed with UCHL1 specific inhibitor (FIGS. 5A and 5B). SMN protein could effectively elevate expression level at 5 μM after LDN-57444 treatment for 8 (38%), 16 (42%), 24 (43%) and 48 (46%) hours compared to the vehicle group (FIGS. 5A and 5B).

[3] = tested on: SMN protein in SMA patients' skin fibroblast cells; assay: Cellular SMN protein level in SMA patients' skin fibroblast cells; format: cell-based, human
Description: as §1
In order to investigate the possibility of therapeutic application, the UCHL1 specific inhibitor was also applied to the SMA patients' skin fibroblast cells. Type II and type III SMA skin fibroblast cells were treated with MG132, a proteasome inhibitor, and LDN-57444.

[4] = tested on: ubiquitinated SMN protein in NSC34 cells; assay: Cellular ubiquitination of SMN (anti-SMN immunoprecipitation, anti-ubiquitin blot); format: cell-based; conditions: different concentrations of inhibitor
Description: Immunoprecipitation assays were performed as previously described with some modifications. Cells with endogenous or ectopically expressed UCHL1 were lysed with RIPA buffer containing 0.2% SDS. After sonication, the lysate was diluted with modified RIPA containing 1% NP-40 for immunoprecipitation. Anti-UCHL1 or anti-SMN antibodies were used to immunoprecipitate the protein. The re-suspended IP complexes were then analyzed by Western blot.
Next, to determine the functional significance of this interaction, purified UCHL1 tagged with 6×His was co-incubated with SMN immunoprecipitate and in vitro ubiquitination assay was performed. […] The SMN protein complex was immunoprecipitated from total cell extract treated with different concentrations of UCHL1 inhibitor and the level of ubiquitinated SMN was determined by the use of anti-ubiquitin antibody.

Row | SMILES | increase of gems number per one hundred cells comparing to vehicle ([1]; 24 hours) [fold] | increase of gems number per one hundred cells comparing to vehicle ([1]; 48 hours) [fold] | Total number of nucleus gems per 100 cells ([1]; 10 μmol/l, 24 h) [per 100 cells] | Total number of nucleus gems per 100 cells ([1]; 10 μmol/l, 48 h, medium and LDN-57444 replaced each day) [per 100 cells] | Total number of nucleus gems per 100 cells ([1]; 20 μmol/l, 24 h) [per 100 cells] | Total number of nucleus gems per 100 cells ([1]; 20 μmol/l, 48 h, medium and LDN-57444 replaced each day) [per 100 cells] | SMN protein expression level increase compared to the vehicle group ([2]; 8 hours) [%] | SMN protein expression level increase compared to the vehicle group ([2]; 16 hours) [%] | SMN protein expression level increase compared to the vehicle group ([2]; 24 hours) [%] | SMN protein expression level increase compared to the vehicle group ([2]; 48 hours) [%] | SMN protein increase ([2]; 8 hours) [%] | SMN protein increase ([2]; 16 hours) [%] | SMN protein increase ([2]; 24 hours) [%] | SMN protein increase ([2]; 48 hours) [%] | SMN protein level, time course at high dosage ([2]; 15 μM) | increase of cellular SMN protein level ([3]; type I SMA skin fibroblast cells) | increase of cellular SMN protein level ([3]; type II SMA skin fibroblast cells) | increase of cellular SMN protein level ([3]; type III SMA skin fibroblast cells) | level of ubiquitinated SMN protein [4] | cellular SMN protein level (in words) ([3]; SMA skin fibroblast cells, positive control)
1 | CC(=O)O/N=C1\C(=O)N(Cc2cc(Cl)ccc2Cl)c2ccc(Cl)cc21 [LDN-57444] | 2.25 | 2.54 | 142±7.55 | 164 ± 8.50 | 189 ± 10.72 | 193 ± 10.21 | 38 | 42 | 43 | 46 | 40 | 56 | 83 | 53 | time delay increase in SMN protein level until 16 hours | 52-62% | 31-38% | 72-87% |  | 
2 | CC(C)C[C@@H](C=O)NC(=O)[C@H](CC(C)C)NC(=O)[C@H](CC(C)C)NC(=O)OCc1ccccc1 [MG132] (Cbz-Leu-Leu-Leu-aldehyde) |  |  |  |  |  |  |  |  |  |  |  |  |  |  |  |  |  |  | same enhancement | increased cellular SMN protein level
